Reference: US20260062432A1 (REXPHARMTECH CO., LTD, priority 2022, published 2026)
Converted amounts (≈) assume the structure as drawn. Where a name gives a salt, the structure may show the parent alone.

Assays:
[1] = Stability test under harsh conditions (60° C.±2° C.), HPLC analysis; assay type: physicochemical; conditions: for purity (HPLC), Day 3 / purity (HPLC), Day 7 / purity (HPLC), Day 14 / purity (HPLC), Day 21 / purity (HPLC), Initial: harsh conditions 60° C.±2° C.; for purity change: stability test for 21 days under harsh conditions
Method: A stability test of a pharmaceutical means to confirm the stability of constant quality over time under certain conditions to set the storage method and shelf life of the pharmaceutical. Therefore, an expiration date of a product is set by setting appropriate specifications and evaluating conformance to the specifications by evaluating significant changes based on a prescribed analytical method.
Specifically, a stability test was conducted under harsh conditions (60° C.±2° C.) according to the ICH guidelines, and an analysis was performed by high-performance liquid chromatography (HPLC) analysis.

[2] = Solubility test (saturated solution, HPLC); assay type: physicochemical
Method: After diluting a reference solution with 50% acetonitrile, a calibration curve (range: […]) was prepared by USP compendial HPLC analysis, and the concentration of the saturated solution was obtained from a first-order function of the prepared calibration curve.

[3] = versus thiamine hydrochloride or thiamine nitrate; cited from earlier work
[4] = tested on: mouse model of Alzheimer's disease; conditions: cited from earlier work
[5] = tested on: patients with mild cognitive impairment or Alzheimer's disease; conditions: cited from earlier work
[6] = tested on: p-ERK, p-AKT, and NR2B in primary cultured hippocampal neurons; assay: Immunoblot test: activation of neuroplastic factors in hippocampal cells; assay type: cell-based, SD rats (Sprague-Dawley rats); conditions: 1 or 3 μg/ml, 10 minutes, FIG. 5
Method: All cells used in the experiment were primary cultured hippocampal neurons. Hippocampal neurons were isolated from embryos of SD rats (Sprague-Dawley rats, Samtaco Korea) on gestation Day 18 and Day 19. A hippocampal nerve tissue of fetal rats was physically separated by using a dissecting microscope and then placed in HBSS (Hank's Balanced Salt Solution) supplemented with 0.25% trypsin and treated at 37° C. for 10 minutes. After washing the hippocampal nerve tissue with HBSS, single cells were isolated by carefully pipetting with a pipette. The isolated cells were cultured by filling a 60 mm cell culture dish, coated with Poly-L-lysine (0.5 mg/ml) in advance, with Neurobasal/B27 medium (0.5 mM L-glutamine, 25 μM glutamate, 25 μM 2-mercaptoethanol, 100 U/mL penicillin, 100 μg/ml streptomycin) at 5% CO2 and 37° C. The medium was exchanged on cell culture Day 4 and Day 11, and the cells were used in the experiment on culture Day 14. To confirm p-ERK, p-AKT, and NR2B in cells, the medium of primary cultured hippocampal neurons cultured for 14 days was changed to a B-27-free medium at least 1 hour before drug treatment. […] The disrupted cell solution was quantified according to a protein quantification method, and then for protein analysis (immunoblotting), the protein was subjected to electrophoresis on 8% and 10% SDS-polyacrylamide gel. The membrane was subjected to a reaction at room temperature for 1 hour by adding 5% skim milk. A primary antibody was treated with tris buffered saline at a ratio of 1:1000, subjected to a reaction at 4° C. for 24 hours, and then washed three times with TBST (25 mM Tris-Hcl, 140 mM NaCl, 0.1% Tween 20, pH 7.5). After that, a secondary antibody was subjected to a reaction with Anti-Rabbit or Anti-Mouse antibody (HRP-linked) in 3% skim milk at a ratio of 1:5000 for 1 hour. The coupled antibody complex was confirmed by using West Femto Maximum Sensitivity Substrate (Thermo), and the results are shown in FIG. 5.

Row | Compound | purity (HPLC), Day 3 [1] | purity (HPLC), Day 7 [1] | purity (HPLC), Day 14 [1] | purity (HPLC), Day 21 [1] | purity (HPLC), Initial [1] | purity change [1] [%] | Solubility ([2]; Purified water) [mg/mL] | Solubility ([2]; pH 1.2) [mg/mL] | Solubility ([2]; pH 4.0) [mg/mL] | Solubility ([2]; pH 6.8) [mg/mL] | solubility at 1 h ([2]; purified water and solutions at pH 1.2, pH 4.0 and pH 6.8, aqueous buffer, thermodynamic from solid, purified water and solutions at pH 1.2, pH 4.0 and pH 6.8, read-out: solubility (range over all media)) [µg/mL] | bioavailability higher than thiamine hydrochloride or thiamine nitrate [3] | level of phosphorylated tau [4] | number of amyloid plaques [4] | spatial memory [4] | rate of functional decline [5] | solubility (in words) ([2]; purified water and all solutions at pH 1.2, pH 4.0, and pH 6.8) | level of NR2B [6] | level of phosphorylated Akt [6] | level of phosphorylated ERK [6]
1 | C/C(=C(\CCOP(=O)(O)O)SC(=O)c1ccccc1)N(C=O)Cc1cnc(C)nc1N [Comparative Example, benfotiamine] | 99.1 | 98.6 | 97.5 | 97.0 | 99.5 | 2.5 | 3.0 (≈ 6.43 mM) | 5.6 (≈ 12 mM) | 3.1 (≈ 6.65 mM) | 6.6 (≈ 14.1 mM) | 3000 to 6600 (≈ 6.43 to 14.1 mM) | about 3.6 times | reduces | reduces | improves spatial memory in a dose-dependent manner | effective and safe in slowing down the rate of functional decline |  |  |  | 
2 | C/C(=C(\CCOP(=O)(O)O)SC(=O)c1ccccc1)N(C=O)Cc1cnc(C)nc1N [Example 1, benfotiamine choline salt] | 99.2 | 99.1 | 99.0 | 98.2 | 99.3 | 1.1 | 652.1 | 898.4 | 690.2 | 820.0 |  |  |  |  |  |  | very high solubility | effectively increased | effectively increased | effectively increased
